Target: T1, fMet-Leu-Phe receptor (Homo sapiens, UniProt P21462)
T1 sequence (P21462 whole entry): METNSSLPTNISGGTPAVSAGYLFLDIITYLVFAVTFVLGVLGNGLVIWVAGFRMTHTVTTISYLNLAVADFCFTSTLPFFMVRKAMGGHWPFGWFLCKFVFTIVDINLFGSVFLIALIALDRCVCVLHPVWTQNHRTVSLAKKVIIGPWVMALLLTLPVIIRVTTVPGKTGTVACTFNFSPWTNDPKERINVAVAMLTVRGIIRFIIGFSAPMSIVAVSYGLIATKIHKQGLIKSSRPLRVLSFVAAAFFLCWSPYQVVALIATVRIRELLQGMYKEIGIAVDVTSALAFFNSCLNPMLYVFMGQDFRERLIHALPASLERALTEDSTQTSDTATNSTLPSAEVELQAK
Assay: FPR ligands, dose response (AID 519)

Compound | IC50 [µM]
COC(=O)c1[nH]c(C)c(C(=O)C2C(=O)C(=O)N(CCN3CCOCC3)C2c2cccs2)c1C (stereo not given) | 5
CC1=NC(C)=C(C#N)C(c2ccc3ncccc3c2)C1C#N (stereo not given) | > 66.7
COc1cccc2cc(C(=O)C3C(=O)C(=O)N(Cc4ccco4)C3c3cccnc3)oc12 (stereo not given) [1-(2-furanylmethyl)-4-hydroxy-3-[(7-methoxy-2-benzofuranyl)-oxomethyl]-2-(3-pyridinyl)-2H-pyrrol-5-one] | > 66.7
COc1cc(C2C(C(=O)c3cccs3)C(=O)C(=O)N2Cc2ccco2)cc(OC)c1OC (stereo not given) [1-(2-furanylmethyl)-4-hydroxy-3-[oxo(thiophen-2-yl)methyl]-2-(3,4,5-trimethoxyphenyl)-2H-pyrrol-5-one] | 27
O=C1C(=O)N(Cc2ccco2)C(c2ccccc2)C1C(=O)c1cccs1 (stereo not given) [1-(2-furanylmethyl)-4-hydroxy-3-[oxo(thiophen-2-yl)methyl]-2-phenyl-2H-pyrrol-5-one] | 35.2
COCCN1C(=O)C(=O)C(C(=O)c2cccs2)C1c1ccccc1 (stereo not given) [1-(2-methoxyethyl)-4-oxidanyl-2-phenyl-3-thiophen-2-ylcarbonyl-2H-pyrrol-5-one] | > 66.7
O=C1C(=O)N(CCN2CCOCC2)C(c2ccccc2)C1C(=O)c1cccs1 (stereo not given) [1-(2-morpholin-4-ylethyl)-4-oxidanyl-2-phenyl-3-thiophen-2-ylcarbonyl-2H-pyrrol-5-one] | > 66.7
Cc1ccc(C(=O)C2C(=O)C(=O)N(CCCn3ccnc3)C2c2ccc(OC(C)C)cc2)o1 (stereo not given) [1-(3-imidazol-1-ylpropyl)-3-(5-methylfuran-2-yl)carbonyl-4-oxidanyl-2-(4-propan-2-yloxyphenyl)-2H-pyrrol-5-one] | > 66.7
CCCOc1ccc(C2C(C(=O)c3ccc(C)o3)C(=O)C(=O)N2CCCn2ccnc2)cc1 (stereo not given) [1-(3-imidazol-1-ylpropyl)-3-(5-methylfuran-2-yl)carbonyl-4-oxidanyl-2-(4-propoxyphenyl)-2H-pyrrol-5-one] | 13.8
C=CCOc1ccc(C2C(C(=O)c3cccs3)C(=O)C(=O)N2c2nnc(C)s2)cc1 (stereo not given) [1-(5-methyl-1,3,4-thiadiazol-2-yl)-4-oxidanyl-2-(4-prop-2-enoxyphenyl)-3-thiophen-2-ylcarbonyl-2H-pyrrol-5-one] | 40.5
O=C1C(=O)N(Cc2ccccc2)C(c2cccnc2)C1C(=O)c1ccco1 (stereo not given) [1-Benzyl-4-(furan-2-carbonyl)-3-hydroxy-5-pyridin-3-yl-1,5-dihydro-pyrrol-2-one] | 30.5
O=C1C(=O)N(Cc2ccccc2)C(c2ccncc2)C1C(=O)c1ccco1 (stereo not given) [1-Benzyl-4-(furan-2-carbonyl)-3-hydroxy-5-pyridin-4-yl-1,5-dihydro-pyrrol-2-one] | 13.6
O=C1C(=O)N(Cc2ccccc2)C(c2ccco2)C1C(=O)c1ccco1 (stereo not given) [1-Benzyl-4-(furan-2-carbonyl)-5-furan-2-yl-3-hydroxy-1,5-dihydro-pyrrol-2-one] | 12.4
O=C1C(=O)N(CCOCCO)C(c2cccs2)C1C(=O)c1cccs1 (stereo not given) [1-[2-(2-hydroxyethyloxy)ethyl]-4-oxidanyl-2-thiophen-2-yl-3-thiophen-2-ylcarbonyl-2H-pyrrol-5-one] | 21.4
COc1ccc(CCN2C(=O)C(=O)C(C(=O)c3ccco3)C2c2cccs2)cc1OC (stereo not given) [1-[2-(3,4-Dimethoxy-phenyl)-ethyl]-4-(furan-2-carbonyl)-3-hydroxy-5-thiophen-2-yl-1,5-dihydro-pyrrol-2-one] | 19
Cc1ccc(C(=O)C2C(=O)C(=O)N(Cc3ccccc3)C2c2cccnc2)o1 (stereo not given) [1-benzyl-3-hydroxy-4-[(5-methylfuran-2-yl)carbonyl]-5-(pyridin-3-yl)-2,5-dihydro-1H-pyrrol-2-one] | > 66.7
COc1ccc(OC)c(C2C(C(=O)c3cccs3)C(=O)C(=O)N2c2cc(C)on2)c1 (stereo not given) [2-(2,5-dimethoxyphenyl)-1-(5-methyl-1,2-oxazol-3-yl)-4-oxidanyl-3-thiophen-2-ylcarbonyl-2H-pyrrol-5-one] | > 66.7
COc1ccc(OC)c(C2C(C(=O)c3ccco3)C(=O)C(=O)N2CCCN2CCOCC2)c1 (stereo not given) [2-(2,5-dimethoxyphenyl)-3-(furan-2-carbonyl)-4-hydroxy-1-(3-morpholin-4-ylpropyl)-2H-pyrrol-5-one] | 26.4
O=C1C(=O)N(c2ncccn2)C(c2ccc(Cl)c(Cl)c2)C1C(=O)c1ccco1 (stereo not given) [2-(3,4-dichlorophenyl)-3-(furan-2-carbonyl)-4-hydroxy-1-pyrimidin-2-yl-2H-pyrrol-5-one] | > 66.7
COc1ccc(C2C(C(=O)c3cccs3)C(=O)C(=O)N2c2nnc(C)s2)cc1OC (stereo not given) [2-(3,4-dimethoxyphenyl)-1-(5-methyl-1,3,4-thiadiazol-2-yl)-4-oxidanyl-3-thiophen-2-ylcarbonyl-2H-pyrrol-5-one] | > 66.7

Compound | IC50 [µM]
COc1ccc(C2C(C(=O)c3ccco3)C(=O)C(=O)N2CCc2ccccc2)cc1OC (stereo not given) [2-(3,4-dimethoxyphenyl)-3-(furan-2-carbonyl)-4-hydroxy-1-(2-phenylethyl)-2H-pyrrol-5-one] | 36.9
COc1ccc(C2C(C(=O)c3ccco3)C(=O)C(=O)N2Cc2cccnc2)cc1OC (stereo not given) [2-(3,4-dimethoxyphenyl)-3-(furan-2-carbonyl)-4-hydroxy-1-(pyridin-3-ylmethyl)-2H-pyrrol-5-one] | > 66.7
COc1cc(C2C(C(=O)c3ccco3)C(=O)C(=O)N2c2cc(C)on2)cc(Br)c1O (stereo not given) [2-(3-bromanyl-5-methoxy-4-oxidanyl-phenyl)-3-(furan-2-ylcarbonyl)-1-(5-methyl-1,2-oxazol-3-yl)-4-oxidanyl-2H-pyrrol-5-one] | 47.7
COCCCN1C(=O)C(=O)C(C(=O)c2ccco2)C1c1cccc(Br)c1 (stereo not given) [2-(3-bromophenyl)-3-(furan-2-carbonyl)-4-hydroxy-1-(3-methoxypropyl)-2H-pyrrol-5-one] | 31.2
O=C1C(=O)N(c2ncccn2)C(c2cccc(Cl)c2)C1C(=O)c1ccco1 (stereo not given) [2-(3-chlorophenyl)-3-(furan-2-carbonyl)-4-hydroxy-1-pyrimidin-2-yl-2H-pyrrol-5-one] | > 66.7
CCOc1cc(C2C(C(=O)c3ccco3)C(=O)C(=O)N2CCc2ccccc2)ccc1O (stereo not given) [2-(3-ethoxy-4-hydroxyphenyl)-3-(furan-2-carbonyl)-4-hydroxy-1-(2-phenylethyl)-2H-pyrrol-5-one] | > 66.7
CCOc1cc(C2C(C(=O)c3ccc(C)o3)C(=O)C(=O)N2CCc2ccccc2)ccc1O (stereo not given) [2-(3-ethoxy-4-hydroxyphenyl)-4-hydroxy-3-(5-methylfuran-2-carbonyl)-1-(2-phenylethyl)-2H-pyrrol-5-one] | 30.4
COc1cc(C2C(C(=O)c3ccc(C)o3)C(=O)C(=O)N2CCc2ccccc2)ccc1O (stereo not given) [2-(3-methoxy-4-oxidanyl-phenyl)-3-(5-methylfuran-2-yl)carbonyl-4-oxidanyl-1-(2-phenylethyl)-2H-pyrrol-5-one] | 19.7
COc1cc(C2C(C(=O)c3ccc(C)o3)C(=O)C(=O)N2Cc2cccnc2)ccc1O (stereo not given) [2-(3-methoxy-4-oxidanyl-phenyl)-3-(5-methylfuran-2-yl)carbonyl-4-oxidanyl-1-(pyridin-3-ylmethyl)-2H-pyrrol-5-one] | > 66.7
COCCCN1C(=O)C(=O)C(C(=O)c2ccco2)C1c1ccc(Br)cc1 (stereo not given) [2-(4-bromophenyl)-3-(furan-2-carbonyl)-4-hydroxy-1-(3-methoxypropyl)-2H-pyrrol-5-one] | 14.7
Cc1nc(C)c(C(=O)C2C(=O)C(=O)N(CCCn3ccnc3)C2c2ccc(Cl)cc2)s1 (stereo not given) [2-(4-chlorophenyl)-3-(2,4-dimethyl-1,3-thiazole-5-carbonyl)-4-hydroxy-1-(3-imidazol-1-ylpropyl)-2H-pyrrol-5-one] | > 66.7
O=C1C(=O)N(c2ncccn2)C(c2ccc(Cl)cc2)C1C(=O)c1ccco1 (stereo not given) [2-(4-chlorophenyl)-3-(furan-2-carbonyl)-4-hydroxy-1-pyrimidin-2-yl-2H-pyrrol-5-one] | > 66.7
CCOc1ccc(C2C(C(=O)c3cccs3)C(=O)C(=O)N2CCCn2ccnc2)cc1 (stereo not given) [2-(4-ethoxyphenyl)-1-(3-imidazol-1-ylpropyl)-4-oxidanyl-3-thiophen-2-ylcarbonyl-2H-pyrrol-5-one] | 57.1
CCOc1ccc(C2C(C(=O)c3ccco3)C(=O)C(=O)N2CCCn2ccnc2)cc1 (stereo not given) [2-(4-ethoxyphenyl)-3-(furan-2-carbonyl)-4-hydroxy-1-(3-imidazol-1-ylpropyl)-2H-pyrrol-5-one] | 9.9
CCOc1ccc(C2C(C(=O)c3ccco3)C(=O)C(=O)N2Cc2cccnc2)cc1 (stereo not given) [2-(4-ethoxyphenyl)-3-(furan-2-carbonyl)-4-hydroxy-1-(pyridin-3-ylmethyl)-2H-pyrrol-5-one] | 15.3
COC(=O)Cc1n[nH]c2c1C(C1C=CCCC1)C(C#N)C(=N)O2 (stereo not given) [2-[6-amino-5-cyano-4-(1-cyclohex-2-enyl)-2,4-dihydropyrano[2,3-c]pyrazol-3-yl]acetic acid methyl ester] | > 66.7
CCCCc1c(O)n(-c2ccccc2)n(-c2ccccc2)c1=O [3,5-Dioxo-1,2-diphenyl-4-n-butylpyrazolidine] | 5.3
COc1cccc(C2C(C(=O)c3cc4ccccc4o3)C(=O)C(=O)N2c2cc(C)on2)c1OC (stereo not given) [3-(1-benzofuran-2-carbonyl)-2-(2,3-dimethoxyphenyl)-4-hydroxy-1-(5-methyl-1,2-oxazol-3-yl)-2H-pyrrol-5-one] | > 66.7
COc1ccc(OC)c(C2C(C(=O)c3cc4ccccc4o3)C(=O)C(=O)N2c2cc(C)on2)c1 (stereo not given) [3-(1-benzofuran-2-carbonyl)-2-(2,5-dimethoxyphenyl)-4-hydroxy-1-(5-methyl-1,2-oxazol-3-yl)-2H-pyrrol-5-one] | 36.6
O=C1C(=O)N(CCCN2CCOCC2)C(c2ccccn2)C1C(=O)c1cc2ccccc2o1 (stereo not given) [3-(1-benzofuran-2-carbonyl)-4-hydroxy-1-(3-morpholin-4-ylpropyl)-2-pyridin-2-yl-2H-pyrrol-5-one] | 60.7

Reference: BindingDB's records for doi:10.7270/Q2J67FB5 (Nmmlsc, 2007)
